Test results as given in ChEMBL document CHEMBL4321836, “Discovery of BAY-298 and BAY-899: Tetrahydro-1,6-naphthyridine-Based, Potent, and Selective Antagonists of the Luteinizing Hormone Receptor Which Reduce Sex Hormone Levels in Vivo” (J Med Chem, 2019).

How the values were obtained:
[1] = target: Lutropin-choriogonadotropic hormone receptor (Homo sapiens, UniProt P22888); assay: Antagonist activity at human luteinizing hormone receptor assessed as reduction in agonist-induced cAMP production preincubated for 20 mins followed by agonist solution addition after 60 mins by cell based TR-FRET assay; format: functional
Lutropin-choriogonadotropic hormone receptor, sequence (P22888 whole entry): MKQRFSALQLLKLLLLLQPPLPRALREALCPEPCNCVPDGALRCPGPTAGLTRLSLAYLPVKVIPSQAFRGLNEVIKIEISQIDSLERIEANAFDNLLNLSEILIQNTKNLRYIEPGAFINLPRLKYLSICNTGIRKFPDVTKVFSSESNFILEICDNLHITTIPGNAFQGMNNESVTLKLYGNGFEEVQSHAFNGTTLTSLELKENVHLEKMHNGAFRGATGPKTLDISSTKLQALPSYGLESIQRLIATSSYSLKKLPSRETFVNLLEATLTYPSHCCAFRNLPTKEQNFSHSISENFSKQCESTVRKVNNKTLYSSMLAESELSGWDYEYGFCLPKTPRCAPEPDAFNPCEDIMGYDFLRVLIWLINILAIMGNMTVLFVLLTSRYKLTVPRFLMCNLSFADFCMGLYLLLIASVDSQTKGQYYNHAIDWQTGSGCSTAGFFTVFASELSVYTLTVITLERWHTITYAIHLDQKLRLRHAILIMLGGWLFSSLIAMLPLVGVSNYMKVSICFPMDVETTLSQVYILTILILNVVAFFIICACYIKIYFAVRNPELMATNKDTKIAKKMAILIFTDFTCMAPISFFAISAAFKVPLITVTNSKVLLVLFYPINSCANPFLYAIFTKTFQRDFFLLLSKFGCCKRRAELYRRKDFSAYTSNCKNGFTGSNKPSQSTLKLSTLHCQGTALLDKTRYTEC

[2] = Lipophilicity, logD of the compound at pH 7.5 by reversed-phase HPLC; format: physicochemical; details: buffer
[3] = Clearance in human liver microsomes at 1 uM measured after 2 to 60 mins in presence of glucose-6-phosphate by LC-MS/MS analysis; format: ADME, Microsome
[4] = Chemical stability of the compound at pH 1 to 10 measured after 1 to 24 hrs by HPLC-UV method; format: physicochemical; details: buffer
[5] = Efflux ratio of apparent permeability from basolateral to apical over apical to basolateral side in human Caco2 cells at 2 uM after 2 hrs by LC-MS/MS analysis; format: ADME, cell-based; details: Caco-2
[6] = Oral bioavailability in Wistar rat at 2 mg/kg after 8 to 72 hrs by LC-MS/MS analysis; format: ADME, organism-based; details: in vivo
[7] = target: T1, Adenosine receptor A3 (Homo sapiens) (UniProt P0DMS8); assay: Agonist activity at human A3 receptor expressed in CHO-K1 cells at 10 uM after 20 mins by HTRF assay relative to control; format: cell-based
T1 sequence (whole entry): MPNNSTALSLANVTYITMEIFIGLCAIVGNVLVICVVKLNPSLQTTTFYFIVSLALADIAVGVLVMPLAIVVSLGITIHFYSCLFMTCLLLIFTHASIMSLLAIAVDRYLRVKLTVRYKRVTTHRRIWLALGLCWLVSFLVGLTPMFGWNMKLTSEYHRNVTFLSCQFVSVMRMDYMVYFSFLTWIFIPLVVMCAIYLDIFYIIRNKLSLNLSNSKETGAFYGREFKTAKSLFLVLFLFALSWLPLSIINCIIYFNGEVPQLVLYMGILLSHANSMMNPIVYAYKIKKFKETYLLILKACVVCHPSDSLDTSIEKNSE

[8] = target: T2, Alpha-1A adrenergic receptor (Homo sapiens) (UniProt P35348); assay: Antagonist activity at human alpha1A adrenergic receptor expressed in CHO-K1 cells at 10 uM by fluorimetric method relative to control; format: cell-based; parameters: scale not given: the % may be the effect or the level left
T2 sequence (whole entry): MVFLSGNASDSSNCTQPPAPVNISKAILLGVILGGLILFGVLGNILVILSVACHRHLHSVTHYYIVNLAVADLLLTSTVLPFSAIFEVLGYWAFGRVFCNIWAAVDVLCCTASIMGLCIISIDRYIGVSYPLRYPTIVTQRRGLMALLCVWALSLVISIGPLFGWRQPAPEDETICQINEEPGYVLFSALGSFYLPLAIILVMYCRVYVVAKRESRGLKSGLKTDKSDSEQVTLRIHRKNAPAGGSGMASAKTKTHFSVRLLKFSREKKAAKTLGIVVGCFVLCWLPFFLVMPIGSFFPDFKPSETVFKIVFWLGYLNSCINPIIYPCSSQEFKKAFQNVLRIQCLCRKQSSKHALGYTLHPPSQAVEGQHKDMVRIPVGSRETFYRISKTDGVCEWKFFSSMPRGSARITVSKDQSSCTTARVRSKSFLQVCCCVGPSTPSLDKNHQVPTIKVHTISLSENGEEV

[9] = target: T3, Alpha-2A adrenergic receptor (Homo sapiens) (UniProt P08913); assay: Antagonist activity at human alpha2A adrenergic receptor expressed in Chem-1 cells at 10 uM by fluorimetric method relative to control; format: cell-based; parameters: scale not given: the % may be the effect or the level left
T3 sequence (whole entry): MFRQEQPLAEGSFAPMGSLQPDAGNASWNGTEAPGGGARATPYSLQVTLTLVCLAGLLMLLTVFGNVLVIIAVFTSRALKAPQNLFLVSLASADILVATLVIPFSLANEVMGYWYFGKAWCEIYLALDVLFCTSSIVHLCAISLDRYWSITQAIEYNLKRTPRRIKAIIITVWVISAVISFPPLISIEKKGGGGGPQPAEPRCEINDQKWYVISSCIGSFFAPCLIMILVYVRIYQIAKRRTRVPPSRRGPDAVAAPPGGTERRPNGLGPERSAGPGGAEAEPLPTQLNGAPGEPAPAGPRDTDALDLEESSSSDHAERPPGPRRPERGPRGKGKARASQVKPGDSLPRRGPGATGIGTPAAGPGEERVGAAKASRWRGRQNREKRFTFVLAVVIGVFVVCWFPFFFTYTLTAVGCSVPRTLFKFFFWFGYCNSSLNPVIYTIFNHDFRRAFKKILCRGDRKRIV

[10] = target: Beta-1 adrenergic receptor (Homo sapiens) (UniProt P08588); assay: Agonist activity at human beta1 adrenergic receptor expressed in HEK293 cells at 10 uM after 30 mins HTRF assay relative to control; format: cell-based
Beta-1 adrenergic receptor (Homo sapiens), sequence (P08588 whole entry, looked up): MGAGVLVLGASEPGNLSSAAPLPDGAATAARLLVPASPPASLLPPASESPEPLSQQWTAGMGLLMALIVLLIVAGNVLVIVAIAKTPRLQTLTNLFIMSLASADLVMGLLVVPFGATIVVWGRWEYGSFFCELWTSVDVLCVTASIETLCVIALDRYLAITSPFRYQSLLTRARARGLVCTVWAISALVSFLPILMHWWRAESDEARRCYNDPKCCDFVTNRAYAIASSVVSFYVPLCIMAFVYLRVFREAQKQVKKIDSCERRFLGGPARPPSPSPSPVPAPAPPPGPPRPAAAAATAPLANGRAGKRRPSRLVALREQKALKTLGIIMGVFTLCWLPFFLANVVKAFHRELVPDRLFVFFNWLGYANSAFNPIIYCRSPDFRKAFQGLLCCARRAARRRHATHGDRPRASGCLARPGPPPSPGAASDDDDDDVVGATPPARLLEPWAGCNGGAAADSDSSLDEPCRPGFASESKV

[11] = target: D(1A) dopamine receptor (Homo sapiens) (UniProt P21728); assay: Antagonist activity at human D1 receptor expressed in CHO-K1 cells at 10 uM after 30 mins HTRF assay relative to control; format: cell-based; parameters: scale not given: the % may be the effect or the level left
D(1A) dopamine receptor (Homo sapiens), sequence (P21728 whole entry): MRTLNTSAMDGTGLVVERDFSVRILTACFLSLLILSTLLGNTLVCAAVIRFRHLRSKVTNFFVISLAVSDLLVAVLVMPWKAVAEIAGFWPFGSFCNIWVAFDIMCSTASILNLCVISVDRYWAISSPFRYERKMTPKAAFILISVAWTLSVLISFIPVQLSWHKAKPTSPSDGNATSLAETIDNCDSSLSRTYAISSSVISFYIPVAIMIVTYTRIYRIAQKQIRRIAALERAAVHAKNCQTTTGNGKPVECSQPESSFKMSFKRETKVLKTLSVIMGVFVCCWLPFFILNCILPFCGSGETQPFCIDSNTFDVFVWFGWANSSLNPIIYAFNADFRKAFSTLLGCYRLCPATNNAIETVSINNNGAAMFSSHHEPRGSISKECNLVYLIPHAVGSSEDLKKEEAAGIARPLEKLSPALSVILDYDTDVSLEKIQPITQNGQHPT

[12] = target: Histamine H2 receptor (Homo sapiens) (UniProt P25021); assay: Antagonist activity at human histamine H2 receptor expressed in CHO-K1 cells at 10 uM after 30 mins by HTRF assay relative to control; format: cell-based; parameters: scale not given: the % may be the effect or the level left
Histamine H2 receptor (Homo sapiens), sequence (P25021 whole entry): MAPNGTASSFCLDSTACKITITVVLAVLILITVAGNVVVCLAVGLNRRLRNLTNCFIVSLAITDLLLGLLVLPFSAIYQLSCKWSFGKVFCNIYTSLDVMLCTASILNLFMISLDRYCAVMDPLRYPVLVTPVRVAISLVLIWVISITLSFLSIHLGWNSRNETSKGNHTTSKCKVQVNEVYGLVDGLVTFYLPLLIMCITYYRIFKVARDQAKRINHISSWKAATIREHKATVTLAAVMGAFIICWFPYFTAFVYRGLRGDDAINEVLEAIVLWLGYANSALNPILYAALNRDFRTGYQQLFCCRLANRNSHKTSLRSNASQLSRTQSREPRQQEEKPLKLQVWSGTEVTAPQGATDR

[13] = target: Melanocortin receptor 4 (Homo sapiens) (UniProt P32245); assay: Antagonist activity at human MC4 receptor expressed in CHO-K1 cells at 10 uM after 30 mins by HTRF assay relative to control; format: cell-based; parameters: scale not given: the % may be the effect or the level left
Melanocortin receptor 4 (Homo sapiens), sequence (P32245 whole entry): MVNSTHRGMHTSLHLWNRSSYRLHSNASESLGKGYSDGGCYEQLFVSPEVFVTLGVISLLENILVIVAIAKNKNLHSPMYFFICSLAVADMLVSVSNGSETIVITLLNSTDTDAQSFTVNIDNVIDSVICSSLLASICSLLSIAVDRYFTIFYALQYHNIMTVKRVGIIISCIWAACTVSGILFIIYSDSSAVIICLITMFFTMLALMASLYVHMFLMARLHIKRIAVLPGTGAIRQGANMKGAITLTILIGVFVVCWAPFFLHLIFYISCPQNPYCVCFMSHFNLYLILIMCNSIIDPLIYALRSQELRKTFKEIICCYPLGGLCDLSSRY

[14] = target: P2Y purinoceptor 2 (Homo sapiens) (UniProt P41231); assay: Agonist activity at human P2Y2 receptor expressed in human 1321N1 cells at 10 uM by fluorimetric method relative to control; format: cell-based
P2Y purinoceptor 2 (Homo sapiens), sequence (P41231 whole entry): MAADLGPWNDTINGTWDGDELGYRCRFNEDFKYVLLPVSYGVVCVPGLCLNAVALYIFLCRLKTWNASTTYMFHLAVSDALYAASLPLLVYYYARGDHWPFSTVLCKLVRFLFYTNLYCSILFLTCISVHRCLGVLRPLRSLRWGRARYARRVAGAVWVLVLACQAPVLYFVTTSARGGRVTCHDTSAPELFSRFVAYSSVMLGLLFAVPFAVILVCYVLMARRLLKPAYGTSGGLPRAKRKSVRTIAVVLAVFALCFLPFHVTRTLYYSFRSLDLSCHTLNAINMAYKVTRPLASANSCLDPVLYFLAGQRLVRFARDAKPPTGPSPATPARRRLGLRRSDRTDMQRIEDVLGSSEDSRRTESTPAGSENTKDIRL

[15] = target: T4, 5-hydroxytryptamine receptor 1A (Homo sapiens) (UniProt P08908); assay: Agonist activity at human 5-HT1A receptor expressed in mouse BA/F3 cells at 10 uM by fluorimetric method relative to control; format: cell-based
T4 sequence (whole entry): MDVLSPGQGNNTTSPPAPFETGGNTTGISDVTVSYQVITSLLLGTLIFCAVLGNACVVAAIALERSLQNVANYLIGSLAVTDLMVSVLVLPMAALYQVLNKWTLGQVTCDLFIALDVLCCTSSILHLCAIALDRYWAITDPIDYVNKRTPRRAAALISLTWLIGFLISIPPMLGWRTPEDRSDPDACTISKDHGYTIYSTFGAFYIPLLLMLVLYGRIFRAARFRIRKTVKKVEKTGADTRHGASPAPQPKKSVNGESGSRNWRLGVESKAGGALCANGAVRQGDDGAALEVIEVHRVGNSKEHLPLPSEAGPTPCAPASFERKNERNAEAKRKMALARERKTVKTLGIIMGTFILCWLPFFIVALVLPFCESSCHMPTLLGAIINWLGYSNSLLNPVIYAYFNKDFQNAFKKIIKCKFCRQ

[16] = target: 5-hydroxytryptamine receptor 2B (Homo sapiens) (UniProt P41595); assay: Antagonist activity at human 5-HT2B receptor expressed in CHO-K1 cells at 10 uM after 30 mins by HTRF assay relative to control; format: cell-based; parameters: scale not given: the % may be the effect or the level left
5-hydroxytryptamine receptor 2B (Homo sapiens), sequence (P41595 whole entry): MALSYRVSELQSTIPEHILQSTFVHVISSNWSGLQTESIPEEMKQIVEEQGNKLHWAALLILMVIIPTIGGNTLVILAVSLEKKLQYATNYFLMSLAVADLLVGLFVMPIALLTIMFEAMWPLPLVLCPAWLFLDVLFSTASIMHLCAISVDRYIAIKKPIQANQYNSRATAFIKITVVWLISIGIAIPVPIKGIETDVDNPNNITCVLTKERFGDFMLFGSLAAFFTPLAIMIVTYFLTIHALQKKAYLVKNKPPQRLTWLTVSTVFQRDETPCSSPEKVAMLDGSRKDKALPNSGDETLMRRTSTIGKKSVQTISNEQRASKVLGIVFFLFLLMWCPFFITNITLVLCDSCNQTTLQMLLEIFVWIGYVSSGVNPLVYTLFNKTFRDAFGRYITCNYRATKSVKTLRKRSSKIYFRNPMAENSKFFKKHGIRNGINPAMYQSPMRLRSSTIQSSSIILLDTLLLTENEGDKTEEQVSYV

[17] = Toxicity in female rat assessed as reduction in body weight; details: in vivo

IC50 [1] [nM] | chromatographic logD [2] | CLhep predicted at 1 µM [3] [mL/min/kg] | Stability [4] | efflux ratio at 2 h, 2 µM [5] | bioavailability [6] [%] | Activity [7] [%] | Activity [8] [%] | Activity [9] [%] | Activity [10] [%] | Activity [11] [%] | Activity [12] [%] | Activity [13] [%] | Activity [14] [%] | Activity [15] [%] | Activity [16] [%] | Compound | Activity [17]
185 | 2.8 | 1.67 | Stable | 1.1 | 108 | < 70 | < 70 | < 70 | < 70 | < 70 | < 70 | < 70 | < 70 | < 70 | < 70 | O=C(Nc1cnc(Oc2ccc(F)cc2)nc1)N1CCc2ncccc2[C@@H]1c1ccc(F)cc1 [BAY-899] | Non-Toxic
96 | 4.7 | 3.33 | Stable | 1.3 | 83 | < 70 | < 70 | < 70 | < 70 | < 70 | < 70 | < 70 | < 70 | < 70 | < 70 | O=C(Nc1ccc(Oc2ccc(F)cc2)cc1)N1CCc2ncccc2[C@@H]1c1ccc(Cl)cc1 | Non-Toxic
